Source: patent US20070117864A1, “Composition for preventing and treating hepatoma” (Tokyo University of Agr. & Tech. TLO Co., Ltd., priority 2003, published 2007)
Marks after values point to notes of the source that are not given here.

Experiment: fecal steroid excretion in hepatoma-bearing rats
Type: in vivo, rat
Conditions: for Steroid excretion Bile acids / Steroid excretion Neutral sterols: feces, final two days, mean ± SEM of 11 rats
Description: Male Donryu rats of four weeks old were purchased from NRC Haruna, Gumma, Japan, and were preliminarily fed for 6 days in quintuple cages in a room with a controlled environment with light period of 8:00 to 20:00, room temperature of 22±1° C., and relative humidity of 60±5%. For the first 3 days, the animals were fed ad libitum with a stock pellet diet (CE-2; CLEA Japan, Tokyo), and for the next 3 days, they were fed a basal diet containing 20% milk casein (20C) (Table 1) ad libitum together with tap water in a glass container. Following the completion of this preparatory raising, the rats were divided into three groups (11 animals per group) with equal average body weights of the respective groups were equal, and 1.0×10^7 of AH109A cells suspended in PBS (−) were transplanted in the back of all the rats. From the time immediately after transplantation, in the respective experimental groups, the animals were fed the experimental diets shown in Table 2.
During the experimental period, the body weight, food intake and solid tumor size (sum of length, width and height) were measured everyday. On the day that the animals were killed, animals were deprived of experimental diets at 9:00, but freely given water until they were killed 4 hours later. Blood was collected from carotid, and the liver and solid tumors were excised. The collected blood was allowed to stand for approximately 2 hours at room temperature, and then centrifuged for 10 minutes at 3000 rpm (1750×g), 4° C., to obtain serum. This blood serum was frozen and stored at −20° C. The livers and solid tumors were washed with physiological saline, blotted on filter paper, and weighed. Furthermore, feces from the 19th to 21st days after transplantation were collected, and these feces were frozen and stored at −20° C. for the measurement of the amounts of steroids excreted from the body.
The amounts of fecal steroids, neutral sterol (NS) and bile acid (BA), excreted into feces were measured. The feces were dried at 60° C., and the dry weight was measured; then, the feces were pulverized using a mixer and a mortar and pestle. Approximately 100 mg of feces was precisely weighed and placed in a screw-capped test tube, and then was saponified for 1 hour at 70° C. by adding 1.5 ml of 4 N potassium hydroxide solution and 1 ml of ethanol. The NS was extracted by transferring the n-hexane layer to a test tube by adding 3 ml of n-hexane to a test tube, shaking this mixture and then subjecting to centrifugal separation at 3000 rpm (1750×g) for 10 minutes. The same operation was performed three times. Subsequently, with […] of distilled water to dilute potassium hydroxide concentration thereof to 1.2 N, and the mixture was subjected to a high-pressure treatment (autoclaved) for 3 hours at 121° C., to deconjugate the conjugated BA. After the preparation was allowed to stand until cool, BA was extracted by adding 3 ml of diethyl ether after adjusting the pH of the solution to 1 with 0.8 ml of hydrochloric acid, and the resulting mixture was shaked; then, subjecting this preparation to centrifugal separation for 10 minutes at 3000 rpm (1750×g), to transfer the diethyl ether layer to a test tube. This operation was performed three times.
The n-hexane extract was dried; then, was added with 0.4 ml of isopropanol and 1.6 ml of 10% Triton X-100. to dissolve the NS. An aliquot (0.24 ml) of this solution was sampled, and was subjected to measurement of NS using a cholesterol C test Wako. […]

SMILES: O=C1OCC(Cc2cccc(O)c2)C1Cc1cccc(O)c1 (centres unmarked) [Enterolactone, enterolactone]
- amounts of neutral sterol and bile acid excreted into the feces (ENL diet groups versus control diet group): significant and dose-dependent increase
- Steroid excretion Bile acids (diet 10 ppm): 18.7 ± 1.49^ab μmol/2 days
- Steroid excretion Neutral sterols (diet 10 ppm): 29.5 ± 2.7^b μmol/2 days
- Steroid excretion Bile acids (diet 100 ppm): 20.8 ± 1.89^b μmol/2 days
- Steroid excretion Neutral sterols (diet 100 ppm): 30.9 ± 2.18^b μmol/2 days
